Measurements: patent US8933039B2 (NPS Pharmaceuticals, Inc., priority 1995, dated 2015)
Non-standard residues stand in square brackets, D forms with d. Residues, ends and D or L forms follow the SMILES beside them. No end group written: not given here. Aib = CC(C)(N)C(=O)O; βAla = NCCC(=O)O

Key:
DPP-IV = DPP-IV (Homo sapiens, UniProt P27487); test: Assay for resistance to dipeptidyl peptidase IV (RP-HPLC of cleavage product); conditions: human, isolated human placental DPP-IV (dipeptidyl peptidase IV), pH 7.4, % Cleaved by DPP-IV, as Example 3: human placental DPP-IV, 37° C., PBS pH 7.4
Description: The mixture was incubated at 37° C. in a circulating water bath for 24 hours. The incubation was quenched by the addition of 50 μl of a solution of diprotin A prepared at a concentration of 4 mg/ml in PBS. Each peptide was tested in duplicate.
Each sample was analyzed by reverse-phase (RP) HPLC as follows: 90 μl of the quenched incubation mixture was injected onto a Rainin Dynamax 300 Å, C18, 5 micron, 4.6×250 millimeter column. The samples were eluted with 0.1% trifluoroacetic acid (TFA) in water modified with 0.1% acetonitrile using a linear gradient and a flow rate of 1 ml per minute. Sample components were detected at 214 nanometers (nm). The extent of cleavage was measured by relative integration of the peak corresponding to the cleavage product compared to that of the remaining undigested parent peptide.

CD1 mice = test: Intestinotrophic activity assessment: small bowel weight in mice; type: in vivo; conditions: for % Activity (small bowel inducing activity relative to native rat GLP-2(1-33) = 100%): mice, as Example 4; for % Increase in small bowel weight: CD1 mice, 2.5 μg peptide s.c. b.i.d. in PBS, sacrificed 10 or 14 days, relative to vehicle only
Description: Recipients were CD1 mice obtained from Charles River Laboratory (Ontario, Canada). The CD1 mice were aged-matched females at time of injection (n=3-4 per group), 6 weeks of age, unless otherwise specified. The animals were allowed a minimum of 24 hours to acclimatize to the laboratory facility before the initiation of each experiment. Animals were identified by ear punch. The mice were not restricted by diet or activity during the experiments. The light/dark cycle was 12 hours, between 6 pm to 6 am. Controls were age- and sex-matched (n=3-4) animals. Mice were injected subcutaneously, twice a day (b.i.d.), with 2.5 μg peptide in a total volume of 0.5 cc of PBS and were monitored daily in the laboratory facility. Animals were sacrificed 10 or 14 days after injection, and were fasted at least 20 hours before sacrifice.
The mice were anaesthetised with CO2 and exsanguinated by cardiac puncture. Blood was collected in 75 μl of TED (Trasysol; EDTA (5000 KIU/ml: 1.2 mg/ml; Diprotin-A), and the blood was centrifuged at 14 k×g for 5 minutes and the plasma was stored at −70 prior to analysis. The small bowel was removed from the peritoneal cavity, from pylorus to cecum, cleaned weighed and measured. For comparative purpose, sections from each animal were obtained from the identical anatomical position. Fragments each measuring 1.5-2.0 cm in length were obtained 8±2 cm, 18±2 cm, 32±2 cm from pylorus for histomorphometry representing proximal jejunum, distal jejunum and distal ileum. Each small bowel fragment was opened longitudinally on its antimesenteric border in a tissue block and then placed on 10% formalin (vol./vol.) overnight, then transferred to 70% […].
Percentage change in small bowel weight was calculated by dividing the mean change in bowel weight of analog treated mice, relative to mice treated with vehicle only, by the mean bowel weight of mice treated with vehicle only, and multiplying this figure by 100.
Experiments assessing the small bowel inducing activity of various analogs was repeated as described above for Example 4. In these experiments, the small bowel inducing activity of each analog in mice was calculated relative to that of native rat GLP-2(1-33) (expressed as 100% of activity). Resistance of analogs to DPP-IV cleavage was performed as described above in Example 3.

Chain of DPP-IV (P27487 whole entry): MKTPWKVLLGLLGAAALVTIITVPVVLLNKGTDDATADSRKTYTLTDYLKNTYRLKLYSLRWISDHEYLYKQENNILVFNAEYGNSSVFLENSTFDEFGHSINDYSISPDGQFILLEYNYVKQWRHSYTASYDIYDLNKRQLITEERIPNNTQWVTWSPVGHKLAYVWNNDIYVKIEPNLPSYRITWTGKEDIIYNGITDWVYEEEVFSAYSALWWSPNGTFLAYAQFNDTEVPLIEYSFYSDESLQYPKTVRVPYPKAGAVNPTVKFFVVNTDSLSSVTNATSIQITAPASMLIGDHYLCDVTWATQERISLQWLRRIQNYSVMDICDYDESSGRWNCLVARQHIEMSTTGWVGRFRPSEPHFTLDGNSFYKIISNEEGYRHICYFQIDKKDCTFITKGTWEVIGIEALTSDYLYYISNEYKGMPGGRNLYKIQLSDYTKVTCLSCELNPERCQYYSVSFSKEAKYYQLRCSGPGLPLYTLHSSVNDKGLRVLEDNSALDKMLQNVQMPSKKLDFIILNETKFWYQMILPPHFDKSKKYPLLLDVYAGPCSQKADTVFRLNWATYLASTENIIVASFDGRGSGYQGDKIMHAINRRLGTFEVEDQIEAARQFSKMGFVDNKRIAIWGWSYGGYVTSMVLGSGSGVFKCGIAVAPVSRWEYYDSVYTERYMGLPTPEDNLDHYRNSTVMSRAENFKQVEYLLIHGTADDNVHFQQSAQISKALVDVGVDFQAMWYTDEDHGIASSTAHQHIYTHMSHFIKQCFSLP

Row | metabolised at 24 h, 0.19 mg/ml (DPP-IV) | Molecule | % Activity (small bowel inducing activity relative to native rat GLP-2(1-33) = 100%) (CD1 mice) | % Increase in small bowel weight (CD1 mice) | % Increase in small bowel weight (CD1 mice; listed as [Leu^10]rGLP-2)
1 | 0% | H-HNDGSFSDEMNTILDNLAARDFINWLIQTKITD-OH [[Asn2]hGLP-2(1-33)] | 67% |  | 
2 | 0% | H-HGDGAFSDEMNTILDNLAARDFINWLIQTKITD-OH [[Gly2,Ala5]hGLP-2(1-33)] | 136% | 38% | 
3 | 0% | H-AGDGSFSDEMNTILDNLAARDFINWLIQTKITD-OH [[Ala1,Gly2]hGLP-2(1-33)] | 53% | 23% | 
4 | 0% | CC[C@H](C)[C@H](NC(=O)[C@H](Cc1ccccc1)NC(=O)[C@H](CC(=O)O)NC(=O)[C@H](CCCNC(=N)N)NC(=O)[C@H](C)NC(=O)[C@H](C)NC(=O)[C@H](CC(C)C)NC(=O)[C@H](CC(N)=O)NC(=O)[C@H](CC(=O)O)NC(=O)[C@H](CC(C)C)NC(=O)[C@@H](NC(=O)[C@@H](NC(=O)[C@H](CC(N)=O)NC(=O)[C@H](CCSC)NC(=O)[C@H](CCC(=O)O)NC(=O)[C@H](CC(=O)O)NC(=O)[C@H](CO)NC(=O)[C@H](Cc1ccccc1)NC(=O)[C@H](CO)NC(=O)CNC(=O)[C@H](CC(=O)O)NC(=O)CCNC(=O)[C@@H](N)Cc1c[nH]cn1)[C@@H](C)O)[C@@H](C)CC)C(=O)N[C@@H](CC(N)=O)C(=O)N[C@@H](Cc1c[nH]c2ccccc12)C(=O)N[C@@H](CC(C)C)C(=O)N[C@H](C(=O)N[C@@H](CCC(N)=O)C(=O)N[C@H](C(=O)N[C@@H](CCCCN)C(=O)N[C@H](C(=O)N[C@H](C(=O)N[C@@H](CC(=O)O)C(=O)O)[C@@H](C)O)[C@@H](C)CC)[C@@H](C)O)[C@@H](C)CC [[bAla2]hGLP-2(1-33)] (H-H[βAla]DGSFSDEMNTILDNLAARDFINWLIQTKITD-OH) | 118% |  | 
5 | 0% | H-HAPGSFSDEMNTILDNLAARDFINWLIQTKITD-OH [[Pro3]hGLP-2(1-33)] | 140% |  | 
6 | 55% | H-HADGSFSDEMNTILDNLAARDFINWLIQTKITE-OH [[Glu33]hGLP-2(1-33)] | 121% |  | 
7 | 0% | HVDGSFSDEMNTILDNLATRDFINWLIQTKITD [[Val2]GLP-2(1-33)] | 145% | 65% | 
8 | 0% | CC[C@H](C)[C@H](NC(=O)[C@H](Cc1ccccc1)NC(=O)[C@H](CC(=O)O)NC(=O)[C@H](CCCNC(=N)N)NC(=O)[C@H](C)NC(=O)[C@H](C)NC(=O)[C@H](CC(C)C)NC(=O)[C@H](CC(N)=O)NC(=O)[C@H](CC(=O)O)NC(=O)[C@H](CC(C)C)NC(=O)[C@@H](NC(=O)[C@@H](NC(=O)[C@H](CC(N)=O)NC(=O)[C@H](CCSC)NC(=O)[C@H](CCC(=O)O)NC(=O)[C@H](CC(=O)O)NC(=O)[C@H](CO)NC(=O)[C@H](Cc1ccccc1)NC(=O)[C@H](CO)NC(=O)CNC(=O)[C@H](CC(=O)O)NC(=O)C(C)(C)NC(=O)[C@@H](N)Cc1c[nH]cn1)[C@@H](C)O)[C@@H](C)CC)C(=O)N[C@@H](CC(N)=O)C(=O)N[C@@H](Cc1c[nH]c2ccccc12)C(=O)N[C@@H](CC(C)C)C(=O)N[C@H](C(=O)N[C@@H](CCC(N)=O)C(=O)N[C@H](C(=O)N[C@@H](CCCCN)C(=O)N[C@H](C(=O)N[C@H](C(=O)N[C@@H](CC(=O)O)C(=O)O)[C@@H](C)O)[C@@H](C)CC)[C@@H](C)O)[C@@H](C)CC [[Aib2]hGLP-2(1-33)] (H-H[Aib]DGSFSDEMNTILDNLAARDFINWLIQTKITD-OH) | 202% |  | 
9 | 48% | H-HADGSFSDEMNTILDNLAARDFINYLIQTKITD-OH [[Tyr25]hGLP-2(1-33)] | 64% |  | 
10 | 0% | RRADGSFSDEMNTILDNLATRDFINWLIQTKITD [[Arg-2,Arg-1]ratGLP-2(2-33)] |  |  | 
11 |  | CC[C@H](C)[C@H](NC(=O)[C@H](Cc1ccccc1)NC(=O)[C@H](CC(=O)O)NC(=O)[C@H](CCCNC(=N)N)NC(=O)[C@H](C)NC(=O)[C@H](C)NC(=O)[C@H](CC(C)C)NC(=O)[C@H](CC(N)=O)NC(=O)[C@H](CC(=O)O)NC(=O)[C@H](CC(C)C)NC(=O)[C@@H](NC(=O)[C@@H](NC(=O)[C@H](CC(N)=O)NC(=O)[C@H](CCSC)NC(=O)[C@H](CCC(=O)O)NC(=O)[C@H](CC(=O)O)NC(=O)[C@H](CO)NC(=O)[C@H](Cc1ccccc1)NC(=O)[C@H](CO)NC(=O)CNC(=O)[C@H](CC(=O)O)NC(=O)[C@H](C)NC(=O)[C@@H](N)Cc1c[nH]cn1)[C@@H](C)O)[C@@H](C)CC)C(=O)N[C@@H](CC(N)=O)C(=O)N[C@@H](Cc1c[nH]c2ccccc12)C(=O)N[C@@H](CC(C)C)C(=O)N[C@H](C(=O)N[C@@H](CCC(N)=O)C(=O)N[C@H](C(=O)N[C@@H](CCCCN)C(=O)N[C@H](C(=O)N[C@H](C(=O)N[C@@H](CC(=O)O)C(=O)NCCCCNC(=N)N)[C@@H](C)O)[C@@H](C)CC)[C@@H](C)O)[C@@H](C)CC [[Agm34]hGLP-2(1-34)] | 97% |  | 
12 |  | H-HADGSFSDEMNTILDNLATRDFINWLIQTK-OH [ratGLP-2(1-30)] | 23% |  | 
13 |  | H-HGDGSFSDEMNTILDNLAARDFINWLIQTKATD-OH [[Gly2,Ala31]hGLP-2(1-33)] | 100% | 28% | 
14 |  | H-HGDGSFSDEMNTILDNLAARAFINWLIQTKITD-OH [[Gly2,Ala21]hGLP-2(1-33)] | 125% | 35% | 
15 |  | H-HGDGSFSDEMNTILDNLAAADFINWLIQTKITD-OH [[Gly2,Ala20]hGLP-2(1-33)] | 105% | 46% | 
16 |  | H-HGDGSFSDEMNTILDNAAARDFINWLIQTKITD-OH [[Gly2,Ala17]hGLP-2(1-33)] | 130% | 36% | 
17 |  | H-HADGSFSDEMNTILDNLAARDFVQWLIQTKITD-OH [[Val23,Gln24]hGLP-2(1-33)] | 82% | 36% | 
18 |  | H-HADGSFSDEMNTILDNLAARDFINWLIQTKITN-OH [[Asn33]hGLP-2(1-33)] | 91% |  | 
19 |  | H-GSFSDEMNTILDNLATRDFINWLIQTKITD-OH [ratGLP-2(4-33)] | 6% |  | 
20 |  | H-HGDGSFSDEMNTILDNLAARDFINWLIATKITD-OH [[Gly2,Ala28]hGLP-2(1-33)] | 130% | 31% | 
21 |  | H-HADGSFSDEMNTILDNLAAQDFINWLIQTKITD-OH [[Gln20]hGLP-2(1-33)] | 80% |  | 
22 | 0% | HSQGSFSDEMNTILDNLAARDFINWLIQTKITD [[Ser2,Gln3]hGLP-2(1-33)] |  |  | 
23 |  | H-HADGSFSDEMNTILDNLATRDFINW-OH [ratGLP-2(1-25)] | 8% |  | 
24 |  | H-HGDGSFSDEMNTILDNLAARDFINWLIQTAITD-OH [[Gly2,Ala30]hGLP-2(1-33)] | 24% |  | 
25 |  | H-HGDGSFSAEMNTILDNLAARDFINWLIQTKITD-OH [[Gly2,Ala8]hGLP-2(1-33)] | 120% | 33% | 
26 |  | H-HADGSFSDELNTILDNLATRDFINWLIQTKITD-OH [[Leu10]ratGLP-2(1-33)] | 51% |  | 26%
27 |  | H-HGDGSFSDEMNTALDNLAARDFINWLIQTKITD-OH [[Gly2,Ala13]hGLP-2(1-33)] | 67% | 18% | 
28 |  | H-HADGTFSDEMNTILDNLAARDFINWLIQTKITD-OH [[Thr5]hGLP-2(1-33)] | 73% |  | 
29 |  | H-HGDGSFSDEMNTIADNLAARDFINWLIQTKITD-OH [[Gly2,Ala14]hGLP-2(1-33)] | 30% |  | 
30 |  | H-HGDGSFSDEMNTILDNLAARDFINALIQTKITD-OH [[Gly2,Ala25]hGLP-2(1-33)] | 18% |  | 
